# Data: patent US20160106789A1, “Inhibition of Neurodegenerative Disease by Grape Seed Extract, Green Tea Extract and Probiotic Bacteria” (priority 2013, published 2016)
# Structures can show the parent of a compound that is named as a salt.
# Experiments:
# Alzheimer patients = assay: Effect on an Alzheimer patient: cognitive state and mini-mental state examination (MMSE); assay type: in vivo, human; conditions: daily, discontinued after two weeks; person, MMSE 13
# Experimental: Six weeks after the diagnosis, the patient's condition continued to deteriorate. The patient was administered memantine hydrochloride (Ebixa® tablet), an antidementia medicine, on a daily basis. Blood-pressure reducing medication was concomitantly administered and the blood pressure was measured to be on the average of 130/70 systolic/diastolic. However, the patient's deterioration appeared to be unaffected by the drug and administration of Ebixa was consequently discontinued after two weeks.
# The following four months were characterized by sporadic memory lapses typical of a moderately severe affliction as well as behavioral deteriorations that occurred from time to time
# Consequently, the blood-pressure reducing medication was discontinued and the administration of GSE was reduced to one capsule per day (300 mg) as GSE is known to reduce blood pressure.
# [1] = General effect on mental faculties (memory) of a first subject; assay type: in vivo, human; conditions: 100 mg once daily over 40 days, after nocturnal sleep, same subject after ceasing GSE
# Experimental: A first subject consumed a capsule containing 300 mg of Meganatural-BP® over a period of 18 months, once daily, immediately after nocturnal sleep. […] The same subject ceased to consume GSE and immediately subsequent consumed capsules of 100 mg EGCG (Lyan) over a period of 40 days, once daily, immediately after nocturnal sleep. 300 mg of Meganatural-BP® and 60 mg of EGCG capsules were concomitantly administered to the same subject, immediately after nocturnal sleep, following the EGCG regime.
# amyloid fibrils = conditions: in-vitro; cited from earlier work
# β-amyloid peptides = conditions: cited from earlier work
Compound,patient's deterioration (Alzheimer patients),improvement of memory [1],formation of β-sheet rich aggregation products such as amyloid fibrils (amyloid fibrils),generation of β-amyloid peptides (β-amyloid peptides)
CC12CC3CC(C)(C1)CC(N)(C3)C2 [memantine hydrochloride],unaffected,–,–,–
Epigallocatechin-3-gallate [EGCG],–,No improvement of memory,prevented,reduces
